Consider 13 molecules from patent US20060264493A1, “Tetracyclic pyrazole derivatives as kinase inhibitors, process for their preparation and pharmaceutical compositions comprising them” (priority 2003, published 2006).

SMILES strings stand for the structures.

With `Cl.Nc1ccc2[nH]c3c(c2c1)CCc1cn[nH]c1-3`, the melting point (usually the temperature of the solid-liquid transition) is 237 to 241 °C.
The figure for `Cl.O=C(O)c1n[nH]c2c1CCc1c-2[nH]c2ccccc12` is over 260 °C.
To `O=[N+]([O-])c1ccc2[nH]c3c(c2c1)CCc1c[nH]nc1-3` [Example 1, 7-Nitro-2,4,5,10-tetrahydropyrazolo[3,4-a]carbazole] belongs over 260 °C.
Molecule `O=C(O)c1ccc2[nH]c3c(c2c1)CCc1c[nH]nc1-3` [Example 2, 2,4,5,10-Tetrahydropyrazolo[3,4-a]carbazole-7-carboxylic acid] came in with a melting point of over 260 °C.
To `O=C(O)c1cccc2[nH]c3c(c12)CCc1c[nH]nc1-3` [Example 3, 2,4,5,10-Tetrahydropyrazolo[3,4-a]carbazole-6-carboxylic acid] belongs over 260 °C; to `O=C(O)c1ccc2c3c([nH]c2c1)-c1n[nH]cc1CC3` [Example 4, 2,4,5,10-Tetrahydropyrazolo[3,4-a]carbazole-8-carboxylic acid], over 260 °C; to `CCOC(=O)c1[nH]nc2c1CCc1c-2[nH]c2ccccc12` [Example 5, Ethyl 2,4,5,10-tetrahydropyrazolo[3,4-a]carbazole-3-carboxylate], 224 to 226 °C.
`CC(C)CC(=O)Nc1ccc2[nH]c3c(c2c1)CCc1cn[nH]c1-3` [Example 7, 3-Methyl-N-(1,4,5,10-tetrahydropyrazolo[3,4-a]carbazol-7-yl)butanamide] returned a melting point of 182 to 185 °C.
`O=C(Nc1ccc2[nH]c3c(c2c1)CCc1cn[nH]c1-3)c1cccs1` [Example 8, N-(1,4,5,10-tetrahydropyrazolo[3,4-a]carbazol-7-yl) thiophene-2-carboxamide]: the melting point lay within 176 to 180 °C.
`CC(C)CNC(=O)c1ccc2[nH]c3c(c2c1)CCc1cn[nH]c1-3` [Example 9, N-isobutyl-1,4,5,10-tetrahydropyrazolo[3,4-a]carbazole-7-carboxamide] yielded a melting point of 186 to 190 °C.
`CN1CCN(C(=O)c2ccc3[nH]c4c(c3c2)CCc2cn[nH]c2-4)CC1` [Example 10, 7-[(4-Methylpiperazin-1-yl)carbonyl]-1,4,5,10-tetrahydropyrazolo[3,4-a]carbazole]: the melting point lay in the range of 198 to 205 °C.
To `CCOC(=O)c1ccc2[nH]c3c(c2c1)CCc1cn[nH]c1-3` [Example 11, Ethyl 1,4,5,10-tetrahydropyrazolo[3,4-a]carbazole-7-carboxylate] belongs 214 to 216 °C; to `COC(=O)c1ccc2c3c([nH]c2c1)-c1[nH]ncc1CC3` [Example 12, Methyl 1,4,5,10-tetrahydropyrazolo[3,4-a]carbazole-8-carboxylate], 240 to 243 °C.
